From patent publication US20030109523A1, “Bicyclic antagonists selective for the alphavbeta3 integrin” (Wyeth, priority 1999, published 2003)

Legend:
osteoclasts = assay: Osteoclast Bone Pitting; format: cell-based, rat; settings: Rattus norvegicus, Osteoclast
Experimental: Osteoclast Bone Pitting The test procedure was conducted as described by R. J. Murrills and D. W. […] At this pH the adherent osteoclasts excavate an adequate number of resorption pits for assay purposes. Slices were fixed in 2.5% glutaraldehyde and osteoclasts counted following tartrate-resistant acid phosphatase staining. […] All cells were stripped from the slice by sonication on 0.25M NH4OH and the resorption pits formed by the osteoclasts during the experiment stained with toluidine blue. Resorption pits were quantified by manually counting. The experiments were conducted according to a block design with osteoclasts from each animal exposed to each treatment. Three replicate slices were used per treatment per animal, such that a total of 96 slices were examined for an experiment involving four animals and eight treatments (including control). Several parameters were recorded on a “per slice” basis: number of pits, number of osteoclasts, number of pits per osteoclast, number of fibroblast-like bone cells. SAS or JMP statistical software were used for statistical analysis. […] IC50s were calculated using dose-response curves.

[1] = biological target: T1, Vitronectin Receptor (αVβ3) (Homo sapiens, UniProt P05106+P06756); assay: Vitronectin Receptor (αVβ3) Binding Test Procedure; settings: for remaining activity at 30 µM: % Max = percentage of the specific binding, read-out: (αVβ3) RECEPTOR BINDING, % @ concentration; for IC50: read-out: (αVβ3) IC50 RECEPTOR BINDING
T1 construct: expressed in transfected cells; host or cells: 512P5 cells (plasma membrane preparation)

αVβ3 integrin = biological target: T2, αVβ3 integrin (Homo sapiens, UniProt P05106+P06756); assay: Osteopontin-αVβ3 Cell Attachment Test Procedure; format: cell-based; settings: for remaining activity at 20 µM / remaining activity at 100 µM: % of maximal attachment, read-out: (αVβ3) CELL ATTACHMENT, % @ concentration; for IC50: attachment of cells to osteopontin, read-out: (αVβ3) IC50 CELL ATTACHMENT
T2 construct: αVβ3-expressing cell lines are maintained by standard tissue culture techniques; endogenous in cells; host or cells: αVβ3-expressing cell lines
Experimental: Osteopontin-αVβ3 Cell Attachment Test Procedure
Measuring the effect of compounds on the RGD-dependent attachment of cells to osteopontin mediated by the αVβ3 integrin.
Following incubation the wells were aspirated and washed once with D-PBS; plates can either be used immediately or stored for up to 1 week at 4° C. Prior to assay, the wells were blocked with 1% bovine serum albumin (BSA) in cell suspension media for 1 hour at 37° C. Following the blocking period, wells were aspirated and washed once with D-PBS.
αVβ3-expressing cell lines are maintained by standard tissue culture techniques. […] The cells were pelleted by low-speed centrifugation and washed three times with 0.5 mg/mL trypsin inhibitor in D-PBS (Sigma). The final cell pellet was resuspended in cell suspension media at a concentration of 10^6 cells/mL.
Incubation: 100 μL of diluted test compound was added to osteopontin-coated wells (in triplicate) followed by 100 μL of cell suspension; background cell attachment was determined in uncoated wells. The plate was incubated at 25° C. in a humidified air atmosphere for 1.5 hours. Following the incubation period, the wells were gently aspirated and washed once with D-PBS.
Cell Number Detection: The number of cells attached was determined by an MTT dye conversion assay (Promega) according to the manufacturer's instructions. Briefly, MTT dye was diluted in cell suspension media (15:85) and 100 μL was added to each well. […] The assay plates were covered and incubated at 37° C. in a humidified air atmosphere overnight.
The individual well optical density was expressed as a percentage of the maximal attachment (% Max) wells minus background attachment, and reported as the mean ±standard deviation.

αIIbβ3 integrin = biological target: T3, αIIbβ3 integrin (Homo sapiens, UniProt P05106+P08514); assay: ADP-Induced Platelet Aggregation; format: cell-based; settings: Table VII; for IC50: ADP 20 uM, human platelets, read-out: Platelet Aggregation αIIbβ3 IC50
T3 construct: Human Platelets: Platelet-enriched plasma was obtained commercially from a donor pool; from tissue; host or cells: human platelet-rich plasma from a commercial donor pool
Experimental: Measurement of the Effect of Compounds on ADP-Induced Platelet Aggregation
Measuring the effect of compounds on ADP-induced platelet aggregation mediated by a fibrinogen-αIIbβ3 integrin interaction.
Human Platelets: Platelet-enriched plasma was obtained commercially from a donor pool. The plasma was tested prior to shipment and found to be negative for HIV, HCV and Hepatitis B. Platelet-rich plasma (PRP) was obtained by diluting plasma to an approximate final concentration of 3×10(6) platelets per mL in platelet poor plasma (PPP). PPP was the supernatant of a lowspeed centrifugation of plasma.
Adenosine diphosphate (ADP): ADP was obtained commercially and diluted to 1 mM (stock solution) in distilled, deionized water (ddH2O).
Incubation: PRP and PPP were prewarmed in a water bath at 37° C. […] PRP plus sample compound in a final volume of 500 uL was added to a pre-warmed cuvette in a ChronoLog aggregometer. A control containing PRP and 5 uL of vehicle was treated similarly to the test cuvette; final vehicle concentration was 1%. The two cuvettes were incubated with stirring (1000 rpm) at 37° C. for 5 minutes. Five hundred microliters of PPP was used as a reference (100% aggregation).
Aggregation: To begin the test, ADP was added yielding a final concentration of 20 uM to both samples (plus and minus sample compound). Light transmittance was monitored continuously and compared to the reference cuvette. After five minutes, the test was terminated and the slope and maximal amplitude of the resulting aggregation plot was calculated by the aggregometer.
The percent of maximal aggregation is the ratio of the maximal aggregations of the sample cuvette to the control multiplied by 100 (% Max) and reported as the mean+−standard deviation.

[2] = @200 μM, percent of maximal aggregation

T3 sequence (P08514 32-887 limits assumed): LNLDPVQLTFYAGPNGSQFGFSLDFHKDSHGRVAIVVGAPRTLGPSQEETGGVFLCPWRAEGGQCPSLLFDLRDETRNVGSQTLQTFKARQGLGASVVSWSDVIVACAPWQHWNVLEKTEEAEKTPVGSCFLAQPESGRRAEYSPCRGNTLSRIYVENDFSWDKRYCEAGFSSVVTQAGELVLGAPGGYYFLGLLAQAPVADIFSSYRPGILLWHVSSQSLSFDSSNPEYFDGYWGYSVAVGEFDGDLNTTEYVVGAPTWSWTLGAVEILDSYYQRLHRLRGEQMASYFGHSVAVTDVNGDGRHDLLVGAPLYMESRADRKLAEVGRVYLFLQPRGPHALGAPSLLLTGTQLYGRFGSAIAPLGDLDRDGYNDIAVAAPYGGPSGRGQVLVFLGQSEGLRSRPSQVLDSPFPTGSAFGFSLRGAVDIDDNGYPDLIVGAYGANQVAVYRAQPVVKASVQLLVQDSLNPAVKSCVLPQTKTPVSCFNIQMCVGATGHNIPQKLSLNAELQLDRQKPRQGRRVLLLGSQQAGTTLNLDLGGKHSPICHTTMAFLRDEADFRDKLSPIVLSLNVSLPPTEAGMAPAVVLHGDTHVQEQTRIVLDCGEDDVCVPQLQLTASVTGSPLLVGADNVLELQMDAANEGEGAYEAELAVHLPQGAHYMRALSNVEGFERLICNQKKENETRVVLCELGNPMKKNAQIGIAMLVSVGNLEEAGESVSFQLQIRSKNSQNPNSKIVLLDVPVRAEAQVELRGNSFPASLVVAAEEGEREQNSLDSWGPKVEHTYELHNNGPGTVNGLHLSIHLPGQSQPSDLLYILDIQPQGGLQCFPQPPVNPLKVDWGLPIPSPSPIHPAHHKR
T3 sequence (P08514 891-1039 partner limits assumed): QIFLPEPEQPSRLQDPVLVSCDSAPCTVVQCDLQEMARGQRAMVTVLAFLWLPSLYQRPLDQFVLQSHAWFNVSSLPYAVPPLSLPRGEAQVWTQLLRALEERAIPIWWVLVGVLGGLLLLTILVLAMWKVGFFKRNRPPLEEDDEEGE
T3 sequence (P05106 27-788): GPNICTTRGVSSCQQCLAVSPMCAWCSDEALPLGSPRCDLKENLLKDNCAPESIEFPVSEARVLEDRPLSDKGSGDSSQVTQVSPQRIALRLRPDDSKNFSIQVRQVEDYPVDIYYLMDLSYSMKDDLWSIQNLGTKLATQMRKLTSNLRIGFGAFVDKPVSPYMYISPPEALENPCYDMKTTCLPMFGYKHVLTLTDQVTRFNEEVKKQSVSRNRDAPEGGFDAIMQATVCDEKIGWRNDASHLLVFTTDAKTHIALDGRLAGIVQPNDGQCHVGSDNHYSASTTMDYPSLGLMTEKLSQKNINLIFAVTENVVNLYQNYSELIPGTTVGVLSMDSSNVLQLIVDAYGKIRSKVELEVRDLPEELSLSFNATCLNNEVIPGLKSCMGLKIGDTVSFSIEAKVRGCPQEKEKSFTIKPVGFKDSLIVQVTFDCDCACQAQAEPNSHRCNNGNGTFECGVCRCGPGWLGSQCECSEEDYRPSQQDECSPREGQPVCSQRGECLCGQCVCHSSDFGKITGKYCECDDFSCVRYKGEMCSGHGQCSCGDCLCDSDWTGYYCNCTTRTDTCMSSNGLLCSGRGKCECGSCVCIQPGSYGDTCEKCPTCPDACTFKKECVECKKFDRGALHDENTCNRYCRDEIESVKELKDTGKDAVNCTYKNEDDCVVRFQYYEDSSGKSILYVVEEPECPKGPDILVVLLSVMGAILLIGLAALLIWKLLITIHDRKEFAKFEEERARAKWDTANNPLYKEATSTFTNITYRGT
T2 sequence (P06756 31-889 limits assumed): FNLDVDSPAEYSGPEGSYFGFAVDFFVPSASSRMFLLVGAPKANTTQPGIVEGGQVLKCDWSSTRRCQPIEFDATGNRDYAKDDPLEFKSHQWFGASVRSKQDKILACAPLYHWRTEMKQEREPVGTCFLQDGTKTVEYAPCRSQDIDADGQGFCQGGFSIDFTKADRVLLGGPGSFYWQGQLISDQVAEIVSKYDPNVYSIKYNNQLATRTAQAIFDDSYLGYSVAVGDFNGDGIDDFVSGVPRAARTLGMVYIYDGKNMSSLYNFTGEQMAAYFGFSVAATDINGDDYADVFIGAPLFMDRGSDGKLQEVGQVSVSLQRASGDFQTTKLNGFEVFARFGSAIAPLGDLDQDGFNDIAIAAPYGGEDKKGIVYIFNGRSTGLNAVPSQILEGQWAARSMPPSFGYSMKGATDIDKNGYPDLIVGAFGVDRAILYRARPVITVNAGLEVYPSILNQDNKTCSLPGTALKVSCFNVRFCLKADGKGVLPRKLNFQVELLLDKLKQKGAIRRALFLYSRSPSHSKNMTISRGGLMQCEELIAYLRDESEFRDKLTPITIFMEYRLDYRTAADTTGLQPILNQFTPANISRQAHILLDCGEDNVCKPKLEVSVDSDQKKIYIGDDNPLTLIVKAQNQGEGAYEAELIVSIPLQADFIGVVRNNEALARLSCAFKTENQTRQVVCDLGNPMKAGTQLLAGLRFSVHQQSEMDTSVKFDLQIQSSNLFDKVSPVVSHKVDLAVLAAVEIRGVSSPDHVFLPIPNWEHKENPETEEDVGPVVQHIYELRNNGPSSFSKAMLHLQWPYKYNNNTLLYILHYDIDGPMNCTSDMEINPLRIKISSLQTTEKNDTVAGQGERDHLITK
T2 sequence (P06756 891-1048 partner limits assumed): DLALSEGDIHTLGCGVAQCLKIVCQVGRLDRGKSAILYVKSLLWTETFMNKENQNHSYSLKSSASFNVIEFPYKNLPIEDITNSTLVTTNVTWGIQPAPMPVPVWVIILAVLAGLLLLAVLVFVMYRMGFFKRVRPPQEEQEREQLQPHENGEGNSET
T2 sequence (P05106 27-788): as the sequence (P05106 27-788) above
T1 sequence (P06756 31-889 limits assumed): as the sequence (P06756 31-889 limits assumed) above
T1 sequence (P06756 891-1048 partner limits assumed): as the sequence (P06756 891-1048 partner limits assumed) above
T1 sequence (P05106 27-788): as the sequence (P05106 27-788) above

remaining activity at 100 µM (αVβ3 integrin) | remaining activity at 200 µM (αIIbβ3 integrin; [2]) | Compound | melting point | remaining activity at 30 µM [1] | IC50 [1] | IC50 (αVβ3 integrin) | further results
 |  | CCN1C(=O)C(CC(=O)O)Cc2ccc(OCCCNC(=N)N)cc21.O=C(O)C(F)(F)F (stereo not drawn) [Example 158, [1-Ethyl-7-(3-guanidino-propoxy)-2-oxo-1,2,3,4-tetrahydro-quinolin-3-yl]-acetic Acid Trifluoroacetate] | 165 to 166 °C |  |  |  | inhibition at 216 µM (osteoclasts): 13%
 |  | N=C(N)NCCCCOc1ccc2c(c1)CC(CCC(=O)O)C(=O)N2 (stereo not drawn) [Example 224, 3-[6-(4-Guanidino-butoxy)-2-oxo-1,2,3,4-tetrahydro-quinolin-3-yl]-propionic Acid] | 152 to 155 °C | 100% |  |  | remaining activity at 20 µM (αVβ3 integrin): 100%; inhibition at 216 µM (osteoclasts): -62%; IC50 (αIIbβ3 integrin): 53 µM
85% | 74.3% | N=C(N)NCCCOc1cccc2c1NC(=O)C(CC(=O)O)C2 (stereo not drawn) [Example 234, [8-(3-Guanidino-propoxy)-2-oxo-1,2,3,4-tetrahydro-quinolin-3-yl]-acetic Acid] | 151 to 155 °C | 100% |  |  | inhibition at 230 µM (osteoclasts): 8%
 | 80.9% | Cl.N=C(N)NCCCOc1ccc2c(c1)NC(=O)C(CC(=O)O)C2 (stereo not drawn) [Example 86, [7-(3-Guanidino-propoxy)-2-oxo-1,2,3,4-tetrahydro-quinolin-3-yl]-acetic Acid Hydrochloride] | 227 to 229 °C |  | 7.3 µM | 21.1 µM | inhibition at 280 µM (osteoclasts; @ 280 μM): 70%
 |  | N=C(N)NCCCOc1ccc2c(c1)CCCC(CC(=O)O)C2.O=C(O)C(F)(F)F (stereo not drawn) [Example 62, [2-(3-Guanidino-propoxy)-6,7,8,9-tetrahydro-5H-benzocyclohepten-6-yl]-acetic Acid Trifluoroacetate] | 109 to 114 °C |  | 1.4 µM | 14 µM | IC50 (αIIbβ3 integrin): 169 µM
100% | 95.2% | N=C(N)NCCOc1ccc2c(c1)NC(=O)C(CCC(=O)O)C2 (stereo not drawn) [Example 230, 3-[7-(2-Guanidino-ethoxy)-2-oxo-1,2,3,4-tetrahydro-quinolin-3-yl]-propionic Acid] | 193 to 196 °C |  |  |  | inhibition at 230 µM (osteoclasts): 15%
114% | 96.5% | N=C(N)NCCCOc1ccc2[nH]c(=O)c(CC(=O)O)cc2c1 [Example 237, [6-(3-Guanidino-propoxy)-2-oxo-1,2-dihydro-quinolin-3-yl]-acetic Acid] | 207 to 212 °C (dec.) | 100% |  |  | remaining activity at 20 µM (αVβ3 integrin): 86.2%
93% | 78.3% | N=C(N)NCCCOc1ccc2c(c1)NC(=O)C(CCC(=O)O)C2 (stereo not drawn) [Example 231, 3-[7-(3-Guanidino-propoxy)-2-oxo-1,2,3,4-tetrahydro-quinolin-3-yl]-propionic Acid] | 157 to 159 °C | 55.9% |  |  | 
 | 83.7% | N=C(N)NCCCOc1ccc2cc(CC(=O)O)c(=O)n(Cc3ccccc3)c2c1 [Example 155, [1-Benzyl-7-(3-guanidino-propoxy)-2-oxo-1,2-dihydro-quinolin-3-yl]-acetic Acid] | 132 to 134 °C |  |  |  | 

Compound | remaining activity at 100 µM (αVβ3 integrin) | remaining activity at 200 µM (αIIbβ3 integrin; [2]) | melting point | remaining activity at 30 µM [1] | IC50 [1] | IC50 (αVβ3 integrin) | further results
CCn1c(=O)c(CC(=O)O)cc2ccc(OCCCNC(=N)N)cc21.O=C(O)C(F)(F)F [Example 149, [1-Ethyl-7-(3-guanidino-propoxy)-2-oxo-1,2-dihydro-quinolin-3-yl]-acetic Acid Trifluoroacetate] | 71.5% | 90.2% | 131 °C |  |  |  | remaining activity at 20 µM (αVβ3 integrin): 96.3%
N=C(N)NCCCCOc1ccc2c(c1)NC(=O)C(CC(=O)O)C2.O=C(O)C(F)(F)F (stereo not drawn) [Example 84, [7-(4-Guanidino-butoxy)-2-oxo-1,2,3,4-tetrahydro-quinolin-3-yl]-acetic Acid Trifluoroacetate] |  | 62% | 189 to 191 °C |  | 11.4 µM | 24.5 µM | inhibition at 223 µM (osteoclasts; @ 223 μM): 57%
N=C(N)NCCCCOc1ccc2c(c1)NC(=O)C(CCC(=O)O)C2 (stereo not drawn) [Example 232, 3-[7-(4-Guanidino-butoxy)-2-oxo-1,2,3,4-tetrahydro-quinolin-3-yl]-propionic Acid] | 97% |  | 176 to 177 °C | 75.3% |  |  | inhibition at 216 µM (osteoclasts): -70%; IC50 (αIIbβ3 integrin): 155 µM
N=C(N)NCCCCc1ccc2c(c1)NC(=O)C(CC(=O)O)C2.O=C(O)C(F)(F)F (stereo not drawn) [Example 121, [7-(4-Guanidino-butyl)-2-oxo-1,2,3,4-tetrahydro-quinolin-3-yl]-acetic Acid Trifluoroacetate] |  | 62% | 157 to 160 °C |  | 2.6 µM | 15.1 µM | inhibition at 228 µM (osteoclasts; @ 228 μM): 30%
N=C(N)NCCCOc1ccc2cc(CC(=O)O)c(=O)n(Cc3ccccc3)c2c1.O=C(O)C(F)(F)F [Example 239, [1-Benzyl-7-(3-guanidino-propoxy)-2-oxo-1,2-dihydro-quinolin-3-yl]-acetic Acid Trifluoroacetic Acid Salt] | 67.5% |  | 132 to 134 °C | 70% |  |  | remaining activity at 20 µM (αVβ3 integrin): 99.7%; inhibition at 19.1 µM (osteoclasts; @ 19.1 μM): 33%; Percent of Maximal (αIIbβ3 integrin; [2]): 83.7@200%
N=C(N)NCCC=Cc1ccc2c(c1)NC(=O)C(CC(=O)O)C2.O=C(O)C(F)(F)F (stereo not drawn) [Example 112, [7-(4-Guanidino-but-1-enyl)-2-oxo-1,2,3,4-tetrahydro-quinolin-3-yl]-acetic Acid Trifluoroacetate] |  | 80.4% | 173 to 176 °C |  | 7 µM | 19.7 µM | 
N=C(N)NCCCC=Cc1ccc2c(c1)NC(=O)C(CC(=O)O)C2.O=C(O)C(F)(F)F (stereo not drawn) [Example 113, [7-(5-Guanidino-pent-1-enyl)-2-oxo-1,2,3,4-tetrahydro-quinolin-3-yl]-acetic Acid Trifluoroacetate] |  | 77.1% | 162 to 165 °C |  | 4 µM | 17.8 µM | 
